Assay: amount of tranilast in the stents, measured by high performance liquid chromatography
Type: physicochemical
Details: impregnation in stent with supercritical CO2, 40 to 140° C.
Procedure: In the experimental example 2, a plural number of luminal stents, formed of plural biodegradable polymer material, in particular plural fibers of biodegradable polymer, in which the drug was impregnated as the pressure and the temperature of CO2 were varied, were formed, and measurements were made of the amount of the drug for each of these stents.
Of the stents, obtained in Examples 14 to 25, the amount of tranilast was measured using a high performance liquid chromatography.

COc1ccc(C=CC(=O)Nc2ccccc2C(=O)O)cc1OC [tranilast, N-(3,4-dimethoxycinnamoyl) anthranilic acid]
thermal decomposition of drug during impregnation: without undergoing thermal decomposition
